{"source": "paper PMC10518257", "about": "(Nature Cancer, 2023)", "key": {"[1]": {"system": "Ba/F3 cells expressing KIF5B–RET^G810S", "assay": "Growth inhibition assay in Ba/F3 cells (CellTiter-Glo, 72 h)", "format": "cell-based", "conditions": "replicate Sets 1-3"}, "[2]": {"system": "Ba/F3-CCDC6::RET^S904F", "assay": "Growth inhibition assay in Ba/F3 cells (CellTiter-Glo, 72 h)", "format": "cell-based"}, "[3]": {"system": "HBECp53-EV cells", "assay": "Growth inhibition (alamarBlue, 96 h)", "format": "cell-based, human", "conditions": "for raw viability signal (Source Data Fig. 3b-c): HBEC-EV, replicate sets"}, "[4]": {"system": "phosphorylation of RET^G810R, RET^G810S and RET^G810C in Ba/F3 cells", "assay": "Western blotting of RET phosphorylation in Ba/F3 KIF5B–RET cells", "format": "cell-based", "conditions": "1 h, western blot"}, "[5]": {"system": "MMNK1 cholangiocytes", "assay": "Growth inhibition (alamarBlue, 96 h)", "format": "cell-based, human", "conditions": "for raw viability signal (Source Data Fig. 3b-c): MMNK, replicates"}, "[6]": {"system": "Ba/F3 KIF5B–RET^WT allograft tumors", "assay": "Subcutaneous allograft efficacy study", "format": "in vivo, BALB/c nude mice", "conditions": "Ba/F3-KIF5B::RET, Ext. Data Fig. 9a"}, "[7]": {"assay": "Transcellular transport study, apparent permeability", "conditions": "pig, LLC-PK1"}, "[8]": {"system": "LUAD-0002AS1 cells (KIF5B::RET)", "assay": "Dose-response western blotting, EC50 for inhibition of protein phosphorylation", "format": "cell-based", "conditions": "Homo sapiens, LUAD-0002AS1, 2 h, densitometry"}, "[9]": {"assay": "Animal weight of tumor-bearing mice"}, "[10]": {"conditions": "Homo sapiens, 96 h, read-out: IC50 for Inhibition of Growth (95% CI)"}}, "note": "Several values for one entry are separate records, joined by “and”; a condition that tells them apart may be missing. Identical values can stand only once. Like-named read-outs stand apart in the source and are kept apart here.", "data": [{"compound": "COc1ccc(CN2C3CC2CN(c2ccc(-c4cc(OCC(C)(C)O)cn5ncc(C#N)c45)cn2)C3)cn1", "note": "[Selpercatinib]", "values": [{"measurement": "GI50", "setting": "[1]; Ba/3-KIF5B-RET-G810S", "result": "182 nM and 173 nM"}, {"measurement": "GI50", "setting": "[1]; Mus musculus, BaF3, Ba/3-KIF5B-RET-G810S", "result": 143, "unit": "nM"}, {"measurement": "GI50", "setting": "[2]; Mus musculus, BaF3, 72 h, read-out: GI50 value (Mean ± SD), Ba/F3-CCDC6::RET^S904F, CellTiter-Glo, 72 h", "result": "4.76 ± 3.02", "unit": "nM"}, {"measurement": "GI50", "setting": "[2]; read-out: GI50 values, Ba/F3-CCDC6::RET S904F, individual sets (replicate experiments)", "result": "4.25 nM and 8 nM and 2.03 nM"}, {"measurement": "raw viability signal (Source Data Fig. 3b-c)", "setting": "[3]; 0.01 nM", "result": "19116.4 (2×) and 30437.1"}, {"measurement": "raw viability signal (Source Data Fig. 3b-c)", "setting": "[3]; 0.1 nM", "result": "18667.6 (2×) and 30340.4"}, {"measurement": "raw viability signal (Source Data Fig. 3b-c)", "setting": "[3]; 1 nM", "result": "19461.2 (2×) and 29511.3"}, {"measurement": "raw viability signal (Source Data Fig. 3b-c)", "setting": "[3]; 10 nM", "result": "19276.9 (2×) and 28618.6"}, {"measurement": "raw viability signal (Source Data Fig. 3b-c)", "setting": "[3]; 100 nM", "result": "19331.4 (2×) and 28192.3"}, {"measurement": "raw viability signal (Source Data Fig. 3b-c)", "setting": "[3]; 1000 nM", "result": "18208.7 (2×) and 25648.6"}, {"measurement": "raw viability signal (Source Data Fig. 3b-c)", "setting": "[3]; 10000 nM", "result": 8503.33}, {"measurement": "IC50", "setting": "[3]; [10]", "result": 11400, "unit": "nM"}, {"measurement": "block of phosphorylation of RET^G810R, RET^G810S or RET^G810C", "setting": "[4]", "result": "did not block"}, {"measurement": "IC50", "setting": "[5]; [10]", "result": 7930, "unit": "nM"}, {"measurement": "raw viability signal (Source Data Fig. 3b-c)", "setting": "[5]; 0.01 nM", "result": "14041 and 14658.8"}, {"measurement": "raw viability signal (Source Data Fig. 3b-c)", "setting": "[5]; 0.1 nM", "result": "13930.7 and 15331"}, {"measurement": "raw viability signal (Source Data Fig. 3b-c)", "setting": "[5]; 1 nM", "result": "13461 and 14668.6"}, {"measurement": "raw viability signal (Source Data Fig. 3b-c)", "setting": "[5]; 10 nM", "result": "13703.4 and 14128"}, {"measurement": "raw viability signal (Source Data Fig. 3b-c)", "setting": "[5]; 100 nM", "result": "13905.3 and 14051.8"}, {"measurement": "raw viability signal (Source Data Fig. 3b-c)", "setting": "[5]; 1000 nM", "result": "12731.7 and 12599.2"}, {"measurement": "raw viability signal (Source Data Fig. 3b-c)", "setting": "[5]; 10000 nM", "result": "6976.41 and 6993.09"}, {"measurement": "Tumor Volume Mean", "setting": "[6]; 3 mg/kg BID, Day 1", "result": 153.36, "unit": "mm3"}, {"measurement": "Tumor Volume Mean", "setting": "[6]; 3 mg/kg BID, Day 4", "result": 200.42, "unit": "mm3"}, {"measurement": "Tumor Volume Mean", "setting": "[6]; 3 mg/kg BID, Day 8", "result": 331.73, "unit": "mm3"}, {"measurement": "Tumor Volume Mean", "setting": "[6]; 3 mg/kg BID, Day 11", "result": 595.39, "unit": "mm3"}, {"measurement": "Tumor Volume Mean", "setting": "[6]; 3 mg/kg BID, Day 15", "result": 703.72, "unit": "mm3"}, {"measurement": "Tumor Volume Mean", "setting": "[6]; 10 mg/kg BID, Day 1", "result": 152.35, "unit": "mm3"}, {"measurement": "Tumor Volume Mean", "setting": "[6]; 10 mg/kg BID, Day 4", "result": 168.16, "unit": "mm3"}, {"measurement": "Tumor Volume Mean", "setting": "[6]; 10 mg/kg BID, Day 8", "result": 206.58, "unit": "mm3"}, {"measurement": "Tumor Volume Mean", "setting": "[6]; 10 mg/kg BID, Day 11", "result": 318.64, "unit": "mm3"}, {"measurement": "Tumor Volume Mean", "setting": "[6]; 10 mg/kg BID, Day 15", "result": 406.01, "unit": "mm3"}, {"measurement": "Tumor Volume Mean", "setting": "[6]; 30 mg/kg BID, Day 1", "result": 155.70, "unit": "mm3"}, {"measurement": "Tumor Volume Mean", "setting": "[6]; 30 mg/kg BID, Day 4", "result": 126.28, "unit": "mm3"}, {"measurement": "Tumor Volume Mean", "setting": "[6]; 30 mg/kg BID, Day 8", "result": 138.87, "unit": "mm3"}, {"measurement": "Tumor Volume Mean", "setting": "[6]; 30 mg/kg BID, Day 11", "result": 107.82, "unit": "mm3"}, {"measurement": "Tumor Volume Mean", "setting": "[6]; 30 mg/kg BID, Day 15", "result": 112.41, "unit": "mm3"}, {"measurement": "Tumor Volume Mean", "setting": "[6]; 100 mg/kg BID, Day 1", "result": 157.17, "unit": "mm3"}, {"measurement": "Tumor Volume Mean", "setting": "[6]; 100 mg/kg BID, Day 4", "result": 107.92, "unit": "mm3"}, {"measurement": "Tumor Volume Mean", "setting": "[6]; 100 mg/kg BID, Day 8", "result": 75.50, "unit": "mm3"}, {"measurement": "Papp at 3 h, 1 μM", "setting": "[7]", "result": 17, "unit": "×10⁻⁶ cm/s"}, {"measurement": "EC50", "setting": "[8]; read-out: EC50 for Inhibition of Protein Phosphorylation (95% CI), AKT S473", "result": 2, "unit": "nM"}, {"measurement": "EC50", "setting": "[8]; read-out: EC50 for Inhibition of Protein Phosphorylation (95% CI), ERK1/2 T202/Y204", "result": 1.5, "unit": "nM"}, {"measurement": "EC50", "setting": "[8]; read-out: EC50 for Inhibition of Protein Phosphorylation (95% CI), MEK1/2 S217/S221", "result": 1.3, "unit": "nM"}, {"measurement": "EC50", "setting": "[8]; read-out: EC50 for Inhibition of Protein Phosphorylation (95% CI), P70 RSK T421/S424", "result": 1.4, "unit": "nM"}, {"measurement": "EC50", "setting": "[8]; read-out: EC50 for Inhibition of Protein Phosphorylation (95% CI), RET Y905", "result": 0.4, "unit": "nM"}, {"measurement": "EC50", "setting": "[8]; read-out: EC50 for Inhibition of Protein Phosphorylation (95% CI), S6RP S235/S236", "result": 0.5, "unit": "nM"}, {"measurement": "Animal Weight, Mean", "setting": "[9]; Ba/F3-KIF5B::RET G810R (Fig 8f), Selpercatinib 10 mg/kg BID, day 1", "result": 27.18, "unit": "g"}, {"measurement": "Animal Weight, Mean", "setting": "[9]; Ba/F3-KIF5B::RET G810R (Fig 8f), Selpercatinib 10 mg/kg BID, day 4", "result": 26.90, "unit": "g"}, {"measurement": "Animal Weight, Mean", "setting": "[9]; Ba/F3-KIF5B::RET G810R (Fig 8f), Selpercatinib 10 mg/kg BID, day 8", "result": 26.00, "unit": "g"}, {"measurement": "Animal Weight, Mean", "setting": "[9]; Ba/F3-KIF5B::RET G810R (Fig 8f), Selpercatinib 10 mg/kg BID, day 11", "result": 26.60, "unit": "g"}, {"measurement": "Animal Weight, Mean", "setting": "[9]; Ba/F3-KIF5B::RET G810R (Fig 8f), Selpercatinib 10 mg/kg BID, day 15", "result": 26.48, "unit": "g"}, {"measurement": "Animal Weight, Mean", "setting": "[9]; Ba/F3-KIF5B::RET G810R (Fig 8g), Selpercatinib 30 mg/kg BID, day 1", "result": 25.8, "unit": "g"}, {"measurement": "Animal Weight, Mean", "setting": "[9]; Ba/F3-KIF5B::RET G810R (Fig 8g), Selpercatinib 30 mg/kg BID, day 4", "result": 26.9, "unit": "g"}, {"measurement": "Animal Weight, Mean", "setting": "[9]; Ba/F3-KIF5B::RET G810R (Fig 8g), Selpercatinib 30 mg/kg BID, day 8", "result": 27.0, "unit": "g"}, {"measurement": "Animal Weight, Mean", "setting": "[9]; Ba/F3-KIF5B::RET G810R (Fig 8g), Selpercatinib 30 mg/kg BID, day 11", "result": 26.8, "unit": "g"}, {"measurement": "Animal Weight, Mean", "setting": "[9]; Ba/F3-KIF5B::RET G810R (Fig 8g), Selpercatinib 30 mg/kg BID, day 15", "result": 26.8, "unit": "g"}, {"measurement": "Animal Weight (g), Mean", "setting": "[9]; Ba/F3-KIF5B::RET tumor-bearing mice (Ext. Data Fig 8h), 3 mg/kg BID, day 1", "result": 28.0, "unit": "g"}]}]}
